From paper PMC8622385, “Metabolites of Prickly Rose: Chemodiversity and Digestive-Enzyme-Inhibiting Potential of Rosa acicularis and the Main Ellagitannin Rugosin D” (Plants, 2021)

Tests used:
[1] = tested on: proteases (pepsin, trypsin, chymotrypsin); test: Simulated gastrointestinal digestion of artificial substrate mixture, protease activity (7-amino-4-methylcoumarin marker, HPLC-DAD); assay type: biochemical, porcine, bovine; details: doses of 1–1000 μg/mL
Text: To study the inhibitory potential of R. acicularis extracts on the digestive enzymes, we used the standardized static, simulated gastrointestinal digestion method of Minekus et al., based on physiologically relevant conditions of digestion. In brief, the artificial substrate mixture, including ethylidene-p-nitrophenyl-α-D-maltoheptaoside (as a carbohydrate model), Nα-benzoyl-L-arginine-7-amino-4-methylcoumarin hydrochloride (as a protein model) and 4-methylumbelliferyl heptanoate (as a lipid model), was digested with extracts of R. acicularis leaves, flowers, roots and fruits ([…]) by gastric and intestinal enzymatic and electrolyte mixtures (or juices). […] In a final step, concentrations of specific markers, such as p-nitrophenol, 7-amino-4-methylcoumarin and 4-methylumbelliferone, released from an artificial nutrient mixture, were analyzed by an HPLC-DAD assay. […]
For simulation, the known standardized static gastrointestinal digestion method of Minekus et al. was used with no variation. […] The supernatant was analyzed using an HPLC-DAD assay (Section 3.7) to quantify the level of markers as p-nitrophenol, 7-amino-4-methylcoumarin and 4-methylumbelliferone formed from ethylidene-p-nitrophenyl-α-D-maltoheptaoside, Nα-benzoyl-L-arginine- 7-amino-4-methylcoumarin hydrochloride and 4-methylumbelliferyl heptanoate, respectively. […]

[2] = molecular target: T1, α-amylase from the human pancreas (Homo sapiens, UniProt P04746); test: HPLC microfractionation with post-column pancreatic α-amylase inhibition (dyed starch); assay type: biochemical; details: HPLC zone of R. acicularis leaf extract (July sample), 30 s fractions
T1 construct: α-amylase from human pancreas; purchased Lee Biosolutions, Inc. Cat. No. 120-15; host or cells: human pancreas (tissue-derived)
T1 sequence (P04746 16-511): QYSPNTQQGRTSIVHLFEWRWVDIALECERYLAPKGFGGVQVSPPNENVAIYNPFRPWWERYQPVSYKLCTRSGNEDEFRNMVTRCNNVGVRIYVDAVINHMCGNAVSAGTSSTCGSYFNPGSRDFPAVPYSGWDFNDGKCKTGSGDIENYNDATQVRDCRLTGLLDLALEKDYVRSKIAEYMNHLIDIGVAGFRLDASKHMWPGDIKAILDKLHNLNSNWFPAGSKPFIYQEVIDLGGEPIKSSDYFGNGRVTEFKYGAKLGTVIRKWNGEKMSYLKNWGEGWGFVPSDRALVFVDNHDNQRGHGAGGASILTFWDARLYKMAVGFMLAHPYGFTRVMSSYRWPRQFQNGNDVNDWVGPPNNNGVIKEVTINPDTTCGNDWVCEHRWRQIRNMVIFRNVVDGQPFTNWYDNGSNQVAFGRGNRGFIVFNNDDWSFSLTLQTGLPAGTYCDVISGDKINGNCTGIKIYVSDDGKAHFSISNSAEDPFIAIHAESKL
Method: The probe of the extract was separated by HPLC, and fractions were eluted every 30 sec, collected, dried and mixed with pancreatic α-amylase. The hydrolytic activity of amylase was studied spectrophotometrically using starch azure as a substrate.
HPLC-PDA-ESI-tQ-MS conditions (Section 3.4) were used to separate the enlarged volume of R. acicularis leaf extract (July sample; 25 μL). The eluates (60 µL) were collected every 30 s by an automated fraction collector, a Shimadzu FRC-10A, and dried under a stream of N2. The eluate residue was dissolved in 50% methanol (50 µL) and added to 50 µL of water, 2.5 mL of Remazol-Brilliant-Blue-R-dyed starch (2% suspension in phosphate buffer, pH of 6.8) and 500 μL α-amylase from the human pancreas (0.4 U/mL), incubated for 50 min (37 °C) and the absorbance was measured at 620 nm. […] The value of 100% destruction of Remazol-Brilliant-Blue-R-dyed starch (or 0% content of intact starch compound) was measured for the eluate with a retention time of 0.5–1.0 min.

## O=C(O[C@@H]1O[C@@H]2COC(=O)c3cc(Oc4c(C(=O)O[C@@H]5O[C@@H]6COC(=O)c7cc(O)c(O)c(O)c7-c7c(cc(O)c(O)c7O)C(=O)O[C@H]6[C@H](OC(=O)c6cc(O)c(O)c(O)c6)[C@H]5OC(=O)c5cc(O)c(O)c(O)c5)cc(O)c(O)c4O)c(O)c(O)c3-c3c(cc(O)c(O)c3O)C(=O)O[C@H]2[C@H](OC(=O)c2cc(O)c(O)c(O)c2)[C@H]1OC(=O)c1cc(O)c(O)c(O)c1)c1cc(O)c(O)c(O)c1 [Rugosin D]
[1]
  Inhibition of protease activity in simulated digestion (in words): not substantially inhibited
[2]
  Starch protected (starch content as percentage of initial) after reaction with pancreatic amylase: 82–95%
